Patent US11058700B2, “Macrocyclic lactones and uses thereof as modulators of purinergic receptors” (City of Hope, priority 2015, dated 2021)

How the values were obtained:
[1] = target: T1, P2X4/P2X7/Pannexin-1 channels (Mus musculus, UniProt Q9JJX6); assay: Membrane permeabilization to YOPRO-1; assay type: cell-based; conditions: 4T1.2 cells, Ivermectin 0.5-32 μM, ATP 0.3-3 mM, 30 min
T1 construct: endogenous in cells; host or cells: 4T1.2 mouse breast cancer cells
T1 sequence (Q9JJX6 1-388): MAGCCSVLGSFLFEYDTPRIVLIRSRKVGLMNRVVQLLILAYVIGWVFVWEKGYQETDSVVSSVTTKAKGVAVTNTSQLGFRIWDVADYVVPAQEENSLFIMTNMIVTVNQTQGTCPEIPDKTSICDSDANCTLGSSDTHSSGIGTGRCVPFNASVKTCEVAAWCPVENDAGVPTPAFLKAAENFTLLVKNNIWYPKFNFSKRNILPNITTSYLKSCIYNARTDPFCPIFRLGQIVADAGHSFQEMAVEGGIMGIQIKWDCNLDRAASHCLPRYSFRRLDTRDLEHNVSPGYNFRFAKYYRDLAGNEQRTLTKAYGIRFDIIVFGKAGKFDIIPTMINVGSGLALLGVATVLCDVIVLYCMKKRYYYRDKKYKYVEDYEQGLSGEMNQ
Protocol: FIGS. 3A-3G. Dual roles of ATP and purinergic signaling in Ivermectin's killing. FIG. 3A: Depletion of extracellular ATP with Apyrase (2500 μunits/ml) exacerbates killing of 4T1.2 cell by Ivermectin. FIG. 3B: Extracellular Ca^2− and ATP contain Ivermectin-induced cell swelling. 4T1.2 cells were treated with 32 μM Ivermectin for 4 h in the presence of 1 mM EDTA or 2500 μunits/ml Apyrase. FIG. 3C: Ivermectin (0.5-32 μM) and high concentrations of extracellular ATP (0.3-3 mM) synergistically open pannexin-1 channels and permeabilize the membrane on live cells (7AAD-positive dead cells were gated out). 4T1.2 cells were treated for 30 min as indicated in the presence of 7 AAD and 5 μM YOPRO-1. FIG. 3D: Analysis of supernatants from Ivermectin-treated murine and human TNBC cells showing rapid release of ATP followed by its transient depletion. Depletion of extracellular ATP with Apyrase (2500 μunits/ml) was used as a positive control. FIG. 3E: Analysis of membrane-proximal ATP levels using cancer cells engineered to express a membrane-bound Luciferase. […] FIG. 3G: The P2X7-specific inhibitor KN-62 (1-10 μM) blocks Ivermectin cytotoxicity (IVM 8-32 μM, 4-48 h treatments). Asterisk (*) indicates p<0.05 relative to untreated or Ivermectin alone controls, respectively.
FIGS. 10A-10L. Extracellular Dual roles of ATP and purinergic signaling in Ivermectin's killing. 4T1.2 cells were treated with Ivermectin for 4 h in the presence of different inhibitors at μM concentrations as indicated. FIG. 10A: The non-specific P2 purinergic receptor inhibitor Suramin (4-400 μM) exacerbates Ivermectin-induced cell death. FIG. 10B: Inhibition of extracellular ATPases with PSB 069 protects against Ivermectin cytotoxicity. FIG. 10C: Blockade of pannexin-1 channels with Panx-1 mimetic blocking peptide (Anaspec) and Probenecid at μM concentrations as indicated exacerbates killing. […] FIG. 10E: ATP plays a transiently protective role only in the mouse but not human breast cancer cells. 4T1.2 and MDA-MB-231 cells were treated with 32 μM Ivermectin for 4 h in the presence of ATP at mM concentrations as indicated. FIG. 10F: qPCR showing up-regulation of P2X4 and P2X7 receptors on several murine cancer cell lines, including 4T1.2 and DD-Her2/neu (breast), and B16 (melanoma). […] Expression of P2X and P2Y purinergic receptors, NOX family members, GABA, and Glycine receptors was analyzed using publicly available breast cancer cell lines datasets. Statistically significant (p<0.05) up-regulation and down-regulation in breast cancer versus normal cells is shown in red and blue, respectively. FIG. 10H: Correlation between sensitivity to Ivermectin and ATP across various human cancer cell lines. Cancer cells were treated for 24 h with 3 mM ATP or Ivermectin at 16 and 32 μM doses as indicated. […]

[2] = tested on: murine and human TNBC cells; assay: HMGB1 and LDH Release; assay type: cell-based, mouse
Protocol: FIGS. 6A-6E. Ivermectin induces autophagy. FIG. 6A: Ivermectin induces autophagy in breast cancer cells. MDA-MB-231 GFL-LC3 cells were treated with different doses of Ivermectin for 24 h and formation of green fluorescent puncta was evaluated by confocal fluorescence microscopy. FIG. 6B: Western blot confirming the induction of autophagy in both murine and human breast cancer cells, as evidenced by LC3 lipidation and autophagic degradation of p62(SQSTM1). […] MDA-MB-231 cells (triplicates) were treated with different doses of Ivermectin for up to 24h and surface stained with antibody-specific for the human M6P receptor versus isotype control. Similarly, 4T1.2 and MB231 cells were treated with different doses of Ivermectin for 4-24 h, and were stained with an antibody specific for both human and mouse CRT versus isotype control. Mean fluorescent intensity (MFI) values and ratios versus isotype control were calculated after gating on live/membrane-intact cells. FIG. 6D: Ivermectin (32 μM) induces release of HMGB1 from murine and human TNBC cells (triplicates). […] Asterisk (*) indicates p<0.05 relative to untreated or Ivermectin alone controls, respectively.
HMGB1 and LDH Release. HMGB1 and LDH release were evaluated using an HMGB1 detection kit (IBL International, ST51011) and the CYTOTOX96® Non Radioactive Cytotoxicity Assay (Promega, G1780),following manufacturers' instructions.

`CC[C@H](C)[C@H]1O[C@]2(CC[C@@H]1C)C[C@@H]1C[C@@H](C/C=C(\C)[C@@H](O[C@H]3C[C@H](OC)[C@@H](O[C@H]4C[C@H](OC)[C@@H](O)[C@H](C)O4)[C@H](C)O3)[C@@H](C)/C=C/C=C3\CO[C@@H]4[C@H](O)C(C)=C[C@@H](C(=O)O1)[C@]34O)O2` [Ivermectin] was tested, and the “opening of channels / permeabilization to YOPRO-1 with ATP” value [1] was “synergized with ATP in opening P2X4/P2X7/Pannexin-1 channels”, the HMGB1 release ([2]; 32 μM) was “potent inducer of HMGB1 release” and the LDH release ([2]; normalized to maximum release (lysis)) was “induces release of cytosolic LDH”.
